Consider four compounds from patent publication US11466008B2, “Co-crystals of neflamapimod (VX-745)” (EIP Pharma, LLC, priority 2017, dated 2022).

In brackets after ≈: the same amount, converted by molar mass.

Data set [1] in a line: Dissolution study in water at ambient temperature (HPLC). Type of data set: physicochemical. As for the experimental part: HPLC analyses were carried out on an Agilent 1100 series instrument equipped with a UV detector using the following materials and operating parameters:
Dissolution studies were carried out for VX-745 at ambient temperature using water, as described by the HPLC Analysis protocol described above.
Dissolution studies were carried out for the CC-6 at ambient temperature using water, as described by the HPLC Analysis protocol described above.
Dissolution studies were carried out for the CC-11 at ambient temperature using water, as described by the HPLC Analysis protocol described above.

Data set [2] in a line: Dissolution study in FaSSIF at ambient temperature (HPLC; XRPD of remaining solids). Particulars: for ending solubility / peak solubility: medium: FaSSIF; for ending solubility / peak solubility / Concentration: ambient temperature; for Concentration: FaSSIF, 3 hrs.
Excerpt: (§1) The first dissolution medium tested was fasted state simulated intestinal fluid (FaSSIF) at ambient temperature. […] The second dissolution medium tested was fed state simulated intestinal fluid (FeSSIF) at ambient temperature.
(§2) Upon the completion of each experiment, the remaining solid was recovered and analyzed by XRPD.
(§3) High-Performance Liquid Chromatography (HPLC) Analyses.
Data set [3] in a line: Dissolution study in FeSSIF at ambient temperature (HPLC; XRPD of remaining solids). Particulars: for Concentration: FeSSIF; for Concentration / ending solubility / peak solubility: ambient temperature; for ending solubility / peak solubility: medium: FeSSIF.
Excerpt: as §1, §2, §3
Data set [4] in a line: Estimated solubility of VX-745 in solvents (solvent aliquot addition, visual inspection). Type of data set: physicochemical. The conditions noted are these: thermodynamic from solid. The protocol:
Solubilities of VX-745 in several solvents were estimated. The experiments were carried out by adding test solvents in aliquots to weighed portions of solid. Whether dissolution had occurred was judged by visual inspection after addition of each solvent aliquot. Solubility numbers were calculated by dividing the total amount of solvent used to dissolve the sample by the weight of the sample. The actual solubilities may be greater than the numbers calculated because of the use of solvent aliquots that were too large or because of slow dissolution rates. […] The solubility number is expressed as “greater than or equal to” if dissolution occurred on addition of the first solvent aliquot.

Setting [5] is: FaSSIF (fasted state simulated intestinal fluid), fassif, thermodynamic from solid.
Setting [6] is: FeSSIF (fed state simulated intestinal fluid), fessif, thermodynamic from solid.

For `O=C(O)CCCC(=O)O.O=c1ncn2nc(Sc3ccc(F)cc3F)ccc2c1-c1c(Cl)cccc1Cl` [CC-6], the Solubility in data set [1] (2 mins) was 23.78 µg/mL; in data set [1] (5 mins), 39.17 µg/mL; in data set [1] (10 mins), 51.39 µg/mL; in data set [1] (15 mins), 67.49 µg/mL; in data set [1] (25 mins), 68.93 µg/mL; in data set [1] (40 mins) it was 65.28 µg/mL. The Solubility in data set [1] (1 hr) amounted to 59.85 µg/mL; in data set [1] (2 hrs), 54.11 µg/mL; in data set [1] (3 hrs) it was 50.75 µg/mL; in data set [1] (4 hrs), 57.07 µg/mL. In addition, the ending solubility in data set [2] was 1.59 µg/mL; in data set [3], 2.38 µg/mL. Also, the peak solubility in data set [2] was 3.75 µg/mL; in data set [3] it was 1.87 µg/mL. In addition, the Concentration in data set [3] (3 mins) turned out to be 1280 ng/mL.

For `O=c1ncn2nc(Sc3ccc(F)cc3F)ccc2c1-c1c(Cl)cccc1Cl.Oc1ccccc1` [CC-11], the Solubility worked out at 10.19 µg/mL in data set [1] (2 mins); 57.50 µg/mL in data set [1] (5 mins); 43.26 µg/mL in data set [1] (10 mins); 36.28 µg/mL in data set [1] (15 mins); 35.33 µg/mL in data set [1] (25 mins); 21.33 µg/mL in data set [1] (40 mins). Besides, the Solubility was determined as 15.09 µg/mL in data set [1] (1 hr), 17.11 µg/mL in data set [1] (2 hrs), 12.30 µg/mL in data set [1] (3 hrs) and 13.98 µg/mL in data set [1] (4 hrs).

Turning to `O=c1ncn2nc(Sc3ccc(F)cc3F)ccc2c1-c1c(Cl)cccc1Cl.[Cl][Zn][Cl]` [CC-18], the Concentration in data set [2] turned out to be 23630 ng/mL; in data set [3] (2 mins (Table 17)), 88500 ng/mL; in data set [3] (5 mins (Table 17)), 68530 ng/mL; in data set [3] (10 mins (Table 17)) it was 56840 ng/mL; in data set [3] (15 mins (Table 17)), 59400 ng/mL; in data set [3] (25 mins (Table 17)), 47550 ng/mL. Moreover, the Concentration was 50990 ng/mL in data set [3] (40 mins (Table 17)); 47830 ng/mL in data set [3] (1 hr (Table 17)); 50170 ng/mL in data set [3] (2 hrs (Table 17)); 47340 ng/mL in data set [3] (3 hrs (Table 17)); 49240 ng/mL in data set [3] (4 hrs (Table 17)); 34180 ng/mL in data set [3] (24 hrs (Table 17)). In addition, the ending solubility in data set [2] came to 22.57 µg/mL; in data set [3], 34.18 µg/mL. In addition, the results for the peak solubility in data set [2] and in data set [3] were 34.49 µg/mL and 88.50 µg/mL, respectively.

Regarding `O=c1ncn2nc(Sc3ccc(F)cc3F)ccc2c1-c1c(Cl)cccc1Cl` [VX-745, 5-(2,6-dichlorophenyl)-2-(2,4-difluorophenylthio)-6H-pyrimido[1,6-b]pyridazin-6-one], the Solubility is 7000 µg/mL (≈ 16000 µM) in data set [4] (organic solvent or mixture, solvent acetone); 9000 µg/mL (≈ 20600 µM) in data set [4] (organic solvent or mixture, solvent acetonitrile); 2000 µg/mL (≈ 4580 µM) in data set [4] (organic solvent or mixture, solvent ethanol); less than 1000 µg/mL in data set [4] (organic solvent or mixture, solvent ethyl acetate); 1000 µg/mL (≈ 2290 µM) in data set [4] (organic solvent or mixture, solvent isopropyl alcohol); 10000 µg/mL (≈ 22900 µM) in data set [4] (organic solvent or mixture, solvent methanol). For the same compound, the Solubility is 4000 µg/mL (≈ 9170 µM) in data set [4] (organic solvent or mixture, solvent tetrahydrofuran (THF)) and less than 1000 µg/mL in data set [4] (solvent water). For the same compound, the solubility at 2 min in data set [1] (thermodynamic from solid, 2 mins) was 11.3 µg/mL (≈ 25.9 µM). In addition, the solubility at 5 min in data set [1] (thermodynamic from solid, 5 mins) is 15.7 µg/mL (≈ 35.9 µM); in data set [2] (setting [5]) it was 17.8 µg/mL (≈ 40.8 µM). In data set [1] (thermodynamic from solid, 10 mins), this compound registered a solubility at 10 min of 14.9 µg/mL (≈ 34.2 µM). In data set [1] (thermodynamic from solid, 15 mins), this compound displayed a solubility at 15 min of 17.8 µg/mL (≈ 40.8 µM). Moreover, the concentration in solution in data set [1] (thermodynamic from solid, 25 mins) (solubility at 25 min) was 15.5 µg/mL (≈ 35.6 µM). The compound further showed a solubility at 40 min in data set [1] (thermodynamic from solid, 40 mins) of 10.7 µg/mL (≈ 24.5 µM). The compound further had a solubility at 1 h in data set [1] (thermodynamic from solid, 1 hr) of 6.59 µg/mL (≈ 15.1 µM). In data set [1] (thermodynamic from solid, 2 hrs), this compound yielded a solubility at 2 h of 5.67 µg/mL (≈ 13 µM). For the same compound, the solubility at 3 h in data set [1] (thermodynamic from solid, 3 hrs) is 6.32 µg/mL (≈ 14.5 µM); in data set [3] (setting [6]), 21.4 µg/mL (≈ 48.9 µM). This compound returned a solubility at 4 h in data set [1] (thermodynamic from solid, 4 hrs) of 11.3 µg/mL (≈ 25.9 µM). The solubility at 24 h was 9.07 µg/mL (≈ 20.8 µM) in data set [2] (setting [5]) and 14 µg/mL (≈ 32.1 µM) in data set [3] (setting [6]). Besides, the figures for the Concentration in data set [2] and in data set [3] (3 hrs) were 5810 ng/mL and 21350 ng/mL, respectively.
